In article PMC6891756, “Synthesis and Biological Evaluation of Novel Aminochalcones as Potential Anticancer and Antimicrobial Agents” (Molecules, 2019):
Converted amounts (≈) assume the structure as drawn.

What was measured:
Candida albicans DSM1386 [1] = test: Microbial growth curve screening, C. albicans; assay type: cell-based; settings: 0.1% (w/v); for ∆OD C. albicans: OD at 560 nm, control 1.58; for Lag-phase C. albicans: control 3.0 h
Experimental: (§1) The antimicrobial screening tests were performed on two strains of bacteria: E. coli ATCC10536 and S. aureus DSM799, strain of yeast C. albicans DSM1386 and three strains of fungi: F. linii KB-F1, A. alternata CBS1526 and A. niger DSM1957. All microorganisms were obtained from the collection of the Faculty of Biotechnology and Food Microbiology, Wrocław University of Environmental and Life Sciences. The bacteria were cultured in nutrient broth (Biocorp, Warsaw, Poland), yeast and fungi in YM medium (3 g yeast extract, 3 g malt extract, 5 g bacteriological peptone and 10 g of glucose dissolved in 1 L of distilled water). The tests were carried out in 100-well microtiter plates. To each well 280 μL of culture medium, 10 μL of microorganism suspension and 10 μL of aminochalcone (1–18) dissolved in dimethyl sulfoxide (3% (w/v)) were added. The final concentration of the tested compound (1–18) was 0.1% (w/v). Each experiment were performed in 3 replications. The optical density of the cell suspension was measured on Bioscreen C (Automated Growth Curve Analysis System Lab System, Vantaa, Finland) at 560 nm automatically, at regular intervals of 30 min for 2–3 days. Cell cultures were maintained at 28 °C on a continuous shaker. To prepare the growth curves for each strain, the mean values of the absorbance in a function of time were used. The resulting antimicrobial activity was expressed as the increase of optical density (ΔOD) and was compared to that of the control cultures in the medium supplemented with dimethyl sulfoxide and also with reference substances: oxytetracycline (against bacteria), cycloheximide (against yeast) and nystatin (against fungi) (Sigma Aldrich).

[2] = test system: Escherichia coli ATCC10536; test: MIC evaluation (broth method), E. coli; assay type: cell-based; settings: 48–72 h, read-out: Minimal inhibitory concentration E. coli
Experimental: (§2) Sterile 96-well microtiter plates (Sarstedt) with nutrient broth (for bacteria) (Biocorp) or YM medium (for yeast and filamentous fungi) were inoculated with a standardized cell suspension of bacteria and yeast or fungal spores of 10^5 cell·mL^−1, and supplemented with aminochalcones dissolved in DMSO. […] All analysis were conducted in triplicates. The plates were incubated at 30 °C (bacteria and yeast) or 25 °C (filamentous fungi) for 48–72 h. The results were measured with the Spark® Multimode Microplate Reader (Tecan, Männedorf, Switzerland) at a 560 nm wavelength. The minimal inhibitory concentration was defined as the lowest concentration of a tested compound that completely restricted the growth of the microorganism. In order to verify the obtained results, microbial cultures subjected to each concentration of aminochalcone were inoculated onto nutrient agar or YM plates and incubated as described above. The lack of growth on agar plate was a confirmation of the MIC of the tested compound. The resulting MIC values were compared with the reference substances: oxytetracycline (against bacteria), cycloheximide (against yeast) and nystatin (against fungi) (Sigma Aldrich).

[3] = test system: Escherichia coli ATCC10536; test: Microbial growth curve screening, E. coli; assay type: cell-based; settings: 0.1% (w/v), OD at 560 nm, control 1.61
Experimental: as §1

Fusarium linii KB-F1 = test: Microbial growth curve screening, F. linii; assay type: cell-based; settings: 0.1% (w/v); for ∆OD F. linii: OD at 560 nm, control 1.95; for Lag-phase F. linii: control 13.5 h
Experimental: as §1

[4] = test system: Alternaria alternata CBS1526; test: Microbial growth curve screening, A. alternata; assay type: cell-based; settings: 0.1% (w/v); for ∆OD A. alternata: OD at 560 nm, control 1.86; for Lag-phase A. alternata: control 16.5 h
Experimental: as §1

LS180 = test: SRB antiproliferative assay, LS180; assay type: cell-based, human; settings: Homo sapiens, LS180, 48 h, 1–100 µg·mL^−1, ND = not detected in the tested concentration range
Experimental: (§3) Anticancer activity was evaluated using the sulforhodamine B assay (SRB) on four different human colon cancer cell lines: HT-29, LS180, LoVo and LoVo/DX and green monkey kidney fibroblasts COS7 (ATCC, Manassas, VA, USA). Cell lines HT-29 and COS7 were cultured in α-MEM medium (IIET PAS, Wrocław, Poland), LS180 in OptiMEM medium (IIET PAS), LoVo and LoVo/DX in mixture of α-MEM and OptiMEM medium (1:1 (v:v)). Each culture medium was supplemented with 10% fetal bovine serum, 2 mM glutamine, 100 μg·mL^−1 penicillin, 100 μg·mL^−1 streptomycin and 0.25 μg·mL^−1 amphotericin (all supplements purchased from Gibco (Paisley, UK). Cells were incubated at 37 °C, 5% CO2 in HeraCELL 150i incubator (Thermo Fisher Scientific, Waltham, MA, USA).
(§4) For the SRB assay, cells were seeded onto 96-well plates (Sarstedt, Nümbrecht, Germany) at a density of 5·10^3/well and cultured overnight as described above. Then, the growth medium was gently removed and replaced with fresh medium, supplemented with aminochalcone derivatives in the concentration ranging from 1 µg·mL^−1 to 100 µg·mL^−1. All stock solutions were prepared in DMSO at a concentration of 10 mg·mL^−1. Cells were incubated for 48 h and then the SRB assay was performed as described previously. Each experiment was performed in quadruplicate. The final results were reported as the IC50 values calculated for three independent experiments. Cisplatin (Acros Organics, Waltham, MA, USA) and doxorubicin (Fisher BioReagents, Waltham, MA, USA) were used as positive controls of the test.

[5] = test system: Staphylococcus aureus DSM799; test: Microbial growth curve screening, S. aureus; assay type: cell-based; settings: 0.1% (w/v); for ∆OD S. aureus: OD at 560 nm, control 1.67; for Lag-phase S. aureus: control 2.5 h
Experimental: as §1

LoVo/DX = test: SRB antiproliferative assay, LoVo/DX; assay type: cell-based, human; settings: Homo sapiens, LoVo/DX, 48 h, 1–100 µg·mL^−1, ND = not detected in the tested concentration range
Experimental: as §3, §4

[6] = SRB assay, normal fibroblasts COS7; assay type: cell-based, green monkey; settings: green monkey, COS7 kidney fibroblasts (normal cell line), ND = not detected in the tested concentration range
Experimental: as §3, §4

HT-29 = test: SRB antiproliferative assay, HT-29; assay type: cell-based, human; settings: Homo sapiens, HT-29; SRB, 48 h, 1–100 µg·mL^−1; ND = not detected in the tested concentration range
Experimental: as §3, §4

[7] = test system: Aspergillus niger DSM1957; test: Microbial growth curve screening, A. niger; assay type: cell-based; settings: 0.1% (w/v); for ∆OD A. niger: OD at 560 nm, control 2.14; for Lag-phase A. niger: control 11.0 h
Experimental: as §1

LoVo = test: SRB antiproliferative assay, LoVo; assay type: cell-based, human; settings: Homo sapiens, LoVo, 48 h, 1–100 µg·mL^−1, ND = not detected in the tested concentration range
Experimental: as §3, §4

[8] = test system: Staphylococcus aureus DSM799; test: MIC evaluation (broth method), S. aureus; assay type: cell-based; settings: 48–72 h, read-out: Minimal inhibitory concentration S. aureus
Experimental: as §2

Candida albicans DSM1386 [9] = test: MIC evaluation (broth method), C. albicans; assay type: cell-based; settings: DSM1386, read-out: Minimal inhibitory concentration C. albicans
Experimental: as §2

Structure (SMILES) | ∆OD C. albicans (Candida albicans DSM1386 [1]) | Lag-phase C. albicans (Candida albicans DSM1386 [1]) [h] | MIC [2] [µg/mL] | ∆OD E. coli [3] | ∆OD F. linii (Fusarium linii KB-F1) | Lag-phase F. linii (Fusarium linii KB-F1) [h] | ∆OD A. alternata [4] | Lag-phase A. alternata [4] [h] | IC50 (LS180) [µg/mL] | ∆OD S. aureus [5] | Lag-phase S. aureus [5] [h] | melting point [°C] | IC50 (LoVo/DX) [µg/mL] | IC50 at 48 h [6] [µg/mL] | IC50 (HT-29) [µg/mL] | ∆OD A. niger [7] | Lag-phase A. niger [7] [h] | IC50 (LoVo) [µg/mL] | MIC [8] [µg/mL] | MIC (Candida albicans DSM1386 [9]) [µg/mL]
CCc1ccc(/C=C/C(=O)c2ccccc2N)cc1 [Compound 4, 2′-Amino-4-ethylchalcone] | 0.98 | 6.0 | 0.5 (≈ 1.99 µM) | 0.0 | 1.04 | 7.5 | 0.40 | 26.5 | 5.1 ± 0.65 (≈ 20.3 µM) | 0.84 | 32.5 | 34 to 36 | 4.78 ± 0.19 (≈ 19 µM) | 9.57 ± 0.52 (≈ 38.1 µM) | 3.98 ± 0.03 (≈ 15.8 µM) | 0.60 | 30.0 | 4.77 ± 0.37 (≈ 19 µM) |  | 
CCc1ccc(/C=C/C(=O)c2cccc(N)c2)cc1 [Compound 5, 3′-Amino-4-ethylchalcone] | 0.61 | 9.5 | 1 (≈ 3.98 µM) | 0.0 | 0.80 | 8.0 | 0.39 | 12.0 | 4.16 ± 0.12 (≈ 16.6 µM) | 0.98 | 29.5 |  | 2.35 ± 0.08 (≈ 9.35 µM) | 4.42 ± 0.27 (≈ 17.6 µM) | 3.43 ± 0.05 (≈ 13.6 µM) | 0.36 | 25.5 | 1.79 ± 0.1 (≈ 7.12 µM) |  | 
Nc1cccc(C(=O)/C=C/c2ccc(C(=O)O)cc2)c1 [Compound 8, 3′-Amino-4-carboxychalcone] | 0.28 | 23.0 | 0.125 (≈ 0.468 µM) | 0.0 | 0.45 | 13.0 | 1.14 | 26.0 | 9.22 ± 0.72 (≈ 34.5 µM) | 0.0 |  |  | 27.44 ± 0.11 (≈ 103 µM) | 15.9 ± 1.04 (≈ 59.6 µM) | 12.3 ± 0.32 (≈ 46.1 µM) | 1.11 | 39.0 | 31.5 ± 0.13 (≈ 118 µM) | 0.125 (≈ 0.468 µM) | 
Nc1ccc(C(=O)/C=C/c2ccc(C(=O)O)cc2)cc1 [Compound 9, 4′-Amino-4-carboxychalcone] | 0.97 | 8.5 | 0.125 (≈ 0.468 µM) | 0.0 | 0.99 | 13.5 | 1.12 | 12.5 | 18.4 ± 0.19 (≈ 68.7 µM) | 0.35 | 37.0 |  | 66.2 ± 1.32 (≈ 248 µM) | 32 ± 8.11 (≈ 120 µM) | 32.4 ± 0.99 (≈ 121 µM) | 0.51 | 35.0 | 73.5 ± 0.98 (≈ 275 µM) |  | 
Nc1cccc(C(=O)/C=C/c2ccc(OCc3ccccc3)cc2)c1 [Compound 14, 3′-Amino-4-benzyloxychalcone] |  | 4.5 | 0.0625 (≈ 0.19 µM) | 0.0 |  | 6.0 |  | 12.0 | 6.51 ± 0.62 (≈ 19.8 µM) |  | 33.5 | 115 to 120 | 5.19 ± 0.41 (≈ 15.8 µM) | 7.61 ± 0.43 (≈ 23.1 µM) | 7.54 ± 0.18 (≈ 22.9 µM) |  | 20.5 |  |  | 
Nc1ccc(C(=O)/C=C/c2ccc(OCc3ccccc3)cc2)cc1 [Compound 15, 4′-Amino-4-benzyloxychalcone] | 0.37 | 16.0 | 0.125 (≈ 0.379 µM) | 0.0 | 0.50 | 11.5 | 1.04 | 19.5 | 8.23 ± 0.49 (≈ 25 µM) | 0.22 | 8.0 |  | 6.66 ± 0.48 (≈ 20.2 µM) | 13.4 ± 2.78 (≈ 40.6 µM) | 7.83 ± 0.14 (≈ 23.8 µM) | 0.57 | 25.0 | 7.64 ± 0.53 (≈ 23.2 µM) |  | 
COc1cc(/C=C/C(=O)c2ccc(N)cc2)ccc1OCc1ccccc1 [Compound 18, 4′-Amino-4-benzyloxy-3-methoxychalcone] | 0.68 | 4.5 | 0.5 (≈ 1.39 µM) | 0.0 | 0.41 | 6.5 | 0.22 | 21.5 | 4.59 ± 0.29 (≈ 12.8 µM) | 0.26 | 33.5 |  |  |  | 5.01 ± 0.49 (≈ 13.9 µM) | 0.65 | 28.5 | 3.54 ± 0.3 (≈ 9.85 µM) |  | 
COc1cccc2c1C(=O)c1c(O)c3c(c(O)c1C2=O)C[C@@](O)(C(=O)CO)C[C@@H]3O[C@H]1C[C@H](N)[C@H](O)[C@H](C)O1 [Compound 20, Doxorubicin, reference compound] |  |  |  |  |  |  |  |  | 0.05 ± 0.02 (≈ 0.092 µM) |  |  |  | 5.32 ± 1.44 (≈ 9.79 µM) | 3.55 ± 1.15 (≈ 6.53 µM) | 0.33 ± 0.02 (≈ 0.607 µM) |  |  | 0.73 ± 0.18 (≈ 1.34 µM) |  | 
C[C@@H]1C[C@@H]([C@H](O)CC2CC(=O)NC(=O)C2)C(=O)[C@@H](C)C1 [Cycloheximide, reference compound] | 0.0 |  |  |  |  |  |  |  |  |  |  |  |  |  |  |  |  |  |  | 0.5 (≈ 1.78 µM)
CN(C)[C@@H]1C(O)=C(C(N)=O)C(=O)[C@@]2(O)C(O)=C3C(=O)c4c(O)cccc4[C@@](C)(O)[C@H]3[C@H](O)[C@@H]12 [Oxytetracycline, reference compound] |  |  | 0.5 (≈ 1.09 µM) | 0.0 |  |  |  |  |  | 0.0 |  |  |  |  |  |  |  |  | 0.125 (≈ 0.271 µM) | 
